The text below walks through data of patent publication US5206014A, “Synthetic nonapeptide for use as an adjuvant” (Sclavo, S.p.A., priority 1987, dated 1993).

Format in all cases: in vivo
Test [1] concerns primary antibody response to sheep's red corpuscles (SRBC), thymo-dependent antigen. The experiment in a line: Primary antibody response to SRBC, direct haemolysis plaque (PFC/spleen, IgM) in immunized mice. On the procedure: (§1) More particularly, the immunostimulating activity of peptides 163-171 TFA and 163-171.HCl were assayed in the antibody response to sheep's red blood compuscles, thymo-dependent antigens and in response to the polysaccharide of Streptococcus pneumoniae serotype 3 (SIII), a thymo-independent antigen having low immunogenicity by using the method of haemolysis of plaques described by Cunningham A. J. and Szenberg (Immunology, 14, 599, 1968).
The method consists in determining the number of cells which secrete antibodies specific to a given antigen. It consists in immunizing mice with the antigen to be assayed, placing lymphocytes obtained from the spleen of the immunized mice in contact with the same antigen, and finally in detecting the haemolysis plaques by adding complement.
Lysis zones (plaque-forming cells PFC) are observed at the place where the antigen-antibody reaction occurs, i.e. at each cell producing specific antibodies.
(§2) According to the invention, therefore, anti-body secreting cells of Classes IgM and IgG are determined by isolating lymphocytes from the spleen of mice immunized with SRBC and SIII antigens and treated by various methods and with various doses of peptide 163-171.TFA and peptide 163-171.HCl. To this end use has been made with identical results of inbred male C3H/HeNCr1BR mice and male and female C3H/HeJ mice weighing about 25 g. According to the invention, SRBC and SIII antigens previously dissolved in phosphate buffer (PBS) were inoculated in the mice, intravenously and intraperitoneally respectively, at a concentration of 1-2×10^8 SRBC/0.2 ml of PBS and 0.5 μg/0.5 ml of PBS. […]
The slides, sealed at the edges with paraffin, were then incubated in a thermostat at 37° C. for one hour. At the end of this period, the plaques of direct haemolysis were counted using a light-contrast visor, indicating the number of lymphocytes secreting antibodies (PFC). The thus-detected antibodies were in Class IgM, specific to the primary antibody response. […]

The subject of test [2] is secondary antibody response to SRBC. The test can be described thus: Secondary antibody response to SRBC, total PFC/spleen (IgM+IgG) in immunized mice. The conditions noted are these: measured four days later, PBS control 29.992. On the procedure: The number of IgG class antibody-secreting cells characteristic of the secondary response is determined, before the complement is added, by adding a direct rabbit antiserum against mouse immunoglobulins.
According to the invention, therefore, anti-body secreting cells of Classes IgM and IgG are determined by isolating lymphocytes from the spleen of mice immunized with SRBC and SIII antigens and treated by various methods and with various doses of peptide 163-171.TFA and peptide 163-171.HCl. To this end use has been made with identical results of inbred male C3H/HeNCr1BR mice and male and female C3H/HeJ mice weighing about 25 g. According to the invention, SRBC and SIII antigens previously dissolved in phosphate buffer (PBS) were inoculated in the mice, intravenously and intraperitoneally respectively, at a concentration of 1-2×10^8 SRBC/0.2 ml of PBS and 0.5 μg/0.5 ml of PBS.
Mice immunized with SRBC as in Example 1 hereinbefore were intraperitoneally re-inoculated four days after the first inoculation with a similar dose of SRBC antigens and simultaneously with 12, 36, 100 mg/kg peptide 163-171.TFA and 500 - 1000 - 2000 U/kg of human IL-1-β.
The immunostimulating activity of the peptide on the secondary response to SRBC was also determined by administering the same doses of peptide and human IL-1β but only with the first inoculation.
Four days after the second dose the mice were killed and the number of PFC/spleen was determined as in Example 1, after combining the complement with a rabbit serum against mouse immunoglobulin at a final dilution of 1:200.
^a The mice intravenously inoculated with 1-2 × 10^8 SRBC o
day -10 and were given a similar dose on day 0 and simultaneously treated
intraperitoneally with PBS (control) or with various doses of peptide
163-171.TFA or hu rIL1β. The total number of antiSRBC PFC was
measured four days after the second inoculation of antigen.
The procedure was the same as in Example 4, the antigen being intravenously inoculated together with preparations of peptide 163-171.TFA and 163-171.HCl (from 100 pg/kg to 100 μg/kg in PBS).

Test [3] deals with primary response to polysaccharide of Streptococcus pneumoniae serotype 3 (SIII). The experiment in a line: Primary antibody response to thymo-independent antigen SIII, PFC/spleen in immunized mice. The conditions noted are these: 500 U/kg intraperitoneally. As to the method:
as §1, §2
The adjuvant activity of peptide 163-171.TFA and of human IL-1-β were then determined as in Example 1 by using 25 μl of a 10% suspension of SIII antigen conjugated with SRBC by chromium chloride in PBS (Baker P. J. et al. Appl. Microbiol. 17, 422 (1969)). […]

With “hu rIL-1β: human interleukin 1β (Genzyme Corporation Boston), comparator adjuvant”, the “Statistical significance versus control of PFC/spleen, primary response to SRBC (FIG. 1-B)” value in test [1] (4000 U/kg intraperitoneally) was “non-significant”. The “Effect on number of plaques/spleen, primary response to SRBC (FIGS. 1A, 1B)” value in test [1] (intraperitoneal, peptide 12-100 mg/kg, IL-1β 500-4000 U/kg, depending on the dose) was “increase in the number of plaques/spleen”. The Optimum intravenous dose in test [1] (intravenous, response not specified) was found to be 0.0001 µg/kg. Also, the “Average of total anti-SRBC PFC-spleen (95% confidence limits)” value in test [2] (500 U/kg intraperitoneally with second SRBC inoculum (day 0)) was 59.841 (45.604-78.343) PFC-spleen; in test [2] (1000 U/kg intraperitoneally with second SRBC inoculum (day 0)), 77.624 (61.502-97.499) PFC-spleen; in test [2] (2000 U/kg intraperitoneally with second SRBC inoculum (day 0)) it was 100.000 (84.139-118.850) PFC-spleen; in test [2] (4000 U/kg intraperitoneally with second SRBC inoculum (day 0)) it was 42.364 (29.853-59.979) PFC-spleen. Besides, the “Statistical significance versus control of PFC/spleen, primary response to SIII (FIG. 5)” value in test [3] was “non-significant”.
